Values after ≈ are worked out from the molar mass of the structure shown. Like-named read-outs stand apart in the source and are kept apart here.
What was measured:
human serum BChE = target: T1, human serum BChE (Homo sapiens, UniProt P06276); assay type: biochemical; details: read-out: hBChE IC50
T1 construct: human serum BChE (Sigma-Aldrich, Milan, Italy) was assessed by Ellman’s method; purchased Sigma-Aldrich, Milan, Italy; host or cells: human serum
Protocol: (§1) Human and mouse acetylcholinesterase and human butyrylcholinesterase inhibition
(§2) assay. The inhibitory activity of the target compounds toward recombinant human AChE
(§3) (Sigma-Aldrich, Milan, Italy), recombinant mouse AChE (Bio-Techne, Milan, Italy) and
(§4) human serum BChE (Sigma-Aldrich, Milan, Italy) was assessed by Ellman’s method,8 using
(§5) Stock solutions of the AChEs were prepared by
(§6) dissolving enzyme lyophilized powder (hAChE) or diluting the enzyme commercial solution
(§7) (mAChE) in 0.1 M potassium phosphate (pH 8.0) containing 0.1% Triton X-100, whereas the
(§8) stock solution of hBChE was prepared in 0.1% aq. gelatin and the stock solutions of the
(§9) compounds to be tested were made in MeOH (2-4 mM). The assay solution consisted of 0.02
(§10) unit mL‒1 of the enzyme, 340 M 5,5’-dithiobis(2-nitrobenzoic acid), and 550 M of the
(§11) substrate acetylthiocholine iodide (for AChE assay) or butyrylthiocholine iodide (for BChE
(§12) assay) in 0.1 M potassium phosphate (pH 8.0). Blank solutions containing all components
(§13) except the enzymes were prepared to account for the non-enzymatic hydrolysis of the
(§14) Prior the addition of the substrate, the assay solutions were incubated at 37 °C for 20 min.
(§15) After the addition of the substrate, cuvettes were rapidly transferred into a Jasco V-530
(§16) double beam spectrophotometer equipped with thermostated cuvette holders (37 °C), in order
(§17) for 240 s. For each tested compound, five increasing concentrations were assayed in order to
(§18) achieve inhibition percentages of 20‒80%. Each concentration was assayed in triplicate. IC50
(§19) values were calculated from the inhibition plot (% inhibition vs log[inhibitor]) and are
(§20) expressed as mean ± SEM. Each IC50 value is the average of at least two experiments, each

recombinant human AChE = target: T2, recombinant human AChE (Homo sapiens, UniProt P22303); assay type: biochemical; details: for IC50: recombinant human AChE, mean ± SEM, read-out: hAChE IC50
T2 construct: purchased Sigma-Aldrich, Milan, Italy
T2 sequence (P22303 32-614): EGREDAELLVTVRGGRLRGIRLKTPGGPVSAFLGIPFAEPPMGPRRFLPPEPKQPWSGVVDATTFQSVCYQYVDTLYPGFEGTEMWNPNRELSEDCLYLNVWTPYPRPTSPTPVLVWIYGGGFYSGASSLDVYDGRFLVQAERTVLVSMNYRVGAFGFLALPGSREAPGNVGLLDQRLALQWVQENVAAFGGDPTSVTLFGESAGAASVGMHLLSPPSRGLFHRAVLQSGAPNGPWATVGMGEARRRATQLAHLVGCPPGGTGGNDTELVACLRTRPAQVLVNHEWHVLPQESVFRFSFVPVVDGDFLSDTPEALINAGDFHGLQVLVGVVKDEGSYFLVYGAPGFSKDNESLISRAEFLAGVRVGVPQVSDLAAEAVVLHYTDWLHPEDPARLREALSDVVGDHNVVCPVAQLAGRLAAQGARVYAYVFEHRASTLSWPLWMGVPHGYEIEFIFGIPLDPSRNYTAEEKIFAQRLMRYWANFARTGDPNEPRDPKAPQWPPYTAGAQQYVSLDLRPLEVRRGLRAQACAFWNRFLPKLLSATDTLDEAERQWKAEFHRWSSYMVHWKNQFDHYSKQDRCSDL
Protocol: as §1, §2, §3, §4, §5, §6, §7, §8, §9, §10, §11, §12, §13, §14, §15, §16, §17, §18, §19, §20

recombinant mouse sEH = target: T3, recombinant mouse sEH (Mus musculus, UniProt P34914); details: read-out: msEH IC50, average of three replicates
T3 sequence (P34914 1-554): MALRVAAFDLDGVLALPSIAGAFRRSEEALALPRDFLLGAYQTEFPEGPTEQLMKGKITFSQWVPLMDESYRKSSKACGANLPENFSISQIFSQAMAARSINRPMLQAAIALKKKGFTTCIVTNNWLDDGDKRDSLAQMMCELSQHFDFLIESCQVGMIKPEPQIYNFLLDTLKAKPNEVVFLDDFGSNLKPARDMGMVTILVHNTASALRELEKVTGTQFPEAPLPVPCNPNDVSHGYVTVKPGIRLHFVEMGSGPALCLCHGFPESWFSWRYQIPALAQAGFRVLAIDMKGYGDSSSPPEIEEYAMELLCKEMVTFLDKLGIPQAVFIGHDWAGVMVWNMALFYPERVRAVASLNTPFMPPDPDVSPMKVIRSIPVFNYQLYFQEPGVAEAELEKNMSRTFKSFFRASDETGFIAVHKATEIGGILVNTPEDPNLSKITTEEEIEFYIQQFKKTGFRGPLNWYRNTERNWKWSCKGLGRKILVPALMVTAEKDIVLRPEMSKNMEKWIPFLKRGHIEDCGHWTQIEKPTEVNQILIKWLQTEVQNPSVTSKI
Protocol: (§21) Human and mouse soluble epoxide hydrolase inhibition assay. The inhibitory activity of
(§22) the target compounds toward human and mouse sEH was determined by a fluorescence-based
(§23) assay, using purified recombinant human or mouse sEH proteins and CMNPC as a fluorescent
(§24) substrate.6 The enzymes were incubated at 30 °C with the inhibitors ([I]final = 0.4-100,000
(§25) nM) for 5 min in 100 mM sodium phosphate buffer (200 µL, pH 7.4) containing 0.1 mg mL‒1
(§26) of BSA and 1% of DMSO. The substrate (CMNPC) was then added ([S]final = 5 µM). Activity
(§27) was assessed by measuring the appearance of the fluorescent 6-methoxynaphthaldehyde
(§28) (Molecular Devices). Results were obtained by regression analysis from a linear region of the
(§29) curve and are given as IC50 values, i.e., the concentration of the compound that reduces the
(§30) sEH activity by 50%. All measurements were performed in triplicate and the mean is

[1] = Microsomal stability, rat liver microsomes; assay type: in vitro ADME; details: rat, liver microsomes (pooled), pH 7.4; for remaining at 1 h, 0.05 µM: after 1 h of incubation at 37 °C, read-out: % remaining compound, rat microsomes
Protocol: (§31) Microsomal stability screen. The microsomal stability of the target compounds was
(§32) determined at the Innopharma Drug Screening and Pharmacogenomics Platform (Santiago de
(§33) Compostela, Spain). The human, rat and mice pooled microsomes, with a protein content of 20 mg mL‒1, were purchased from Tebu-Xenotech. The compounds were incubated in a 96-well microplate at 37 °C with the microsomes in 50 mM phosphate buffer (pH = 7.4) containing as cofactors 30 mM MgCl2, 10 mM NADP, 100 mM glucose-6-phosphate and 40
(§34) Samples (75 µL) were taken from each well at 0, 10, 20, 40 and 60 min and transferred to a microplate. 4 °C Acetonitrile (75 µL) and internal standard (rolipram) were then added for inactivating the microsomes, and water with 0.5% formic acid (30 µL) was subsequently added for improving the chromatographic conditions, keeping the mixtures at 4 °C. The plate was centrifuged at 46,000 g for 30 min at 15 °C and supernatants were taken and analyzed in a UPLC-MS/MS system (UPLC QSM Waters Acquity) using reverse phase Acquity UPLC® HSST3 1.7 μm (2.1 mm × 50 mm, Waters) as the stationary phase, 0.1% formic acid in water (A) / 0.1% formic acid in acetonitrile (B) as the mobile phase, a flow of 0.8 mL min‒1, and the
(§35) The metabolic stability of the compounds was calculated from the logarithm of the remaining compound at each of the time points studied.

recombinant mouse AChE = target: T4, recombinant mouse AChE (Mus musculus, UniProt P21836); experiment: Mouse acetylcholinesterase inhibition, Ellman's method; assay type: biochemical; details: recombinant mouse AChE; mean ± SEM; read-out: mAChE IC50
T4 construct: purchased Bio-Techne, Milan, Italy
T4 sequence (P21836 32-614): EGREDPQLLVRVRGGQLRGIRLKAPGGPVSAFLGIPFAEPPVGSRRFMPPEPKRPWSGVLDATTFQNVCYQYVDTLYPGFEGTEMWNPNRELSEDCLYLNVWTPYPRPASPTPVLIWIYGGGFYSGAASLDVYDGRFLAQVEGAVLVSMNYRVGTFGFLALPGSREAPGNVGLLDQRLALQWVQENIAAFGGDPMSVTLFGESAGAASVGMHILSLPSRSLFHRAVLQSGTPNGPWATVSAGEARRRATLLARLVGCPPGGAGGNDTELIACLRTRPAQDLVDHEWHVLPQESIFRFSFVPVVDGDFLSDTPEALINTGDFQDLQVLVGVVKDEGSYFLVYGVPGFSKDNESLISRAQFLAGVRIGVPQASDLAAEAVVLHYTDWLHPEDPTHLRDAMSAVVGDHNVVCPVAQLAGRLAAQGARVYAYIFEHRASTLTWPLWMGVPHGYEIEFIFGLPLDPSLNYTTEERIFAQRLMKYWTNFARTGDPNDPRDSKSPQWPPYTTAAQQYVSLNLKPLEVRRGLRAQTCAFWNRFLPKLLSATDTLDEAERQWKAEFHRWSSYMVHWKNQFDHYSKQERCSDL
Protocol: as §1, §2, §3, §4, §5, §6, §7, §8, §9, §10, §11, §12, §13, §14, §15, §16, §17, §18, §19, §20

SH-SY5Y cells = experiment: Cytotoxicity in SH-SY5Y cells, propidium iodide stain; assay type: cell-based, human; details: for toxicity to SH-SY5Y cells LD50: propidium iodide staining after 24 h of incubation, mean ± SD; for LD50 (SH-SY5Y): supplementary CSV
Protocol: Cytotoxicity in SH-SY5Y cells. The cytotoxicity of the target compounds was evaluated in
Minimum Essential Medium / Ham’s-F12 (1:1, v/v) medium (Biowest), supplemented with
non-essential amino acids, 10% fetal bovine serum, 1 mM glutamine and 50 µg mL‒1
gentamycin (all reagents from Gibco, Thermo Fisher Scientific). For the experiments, cells
were seeded at 3 × 10^5 cells mL‒1 (100 µL per well) in 96-well plates (Nunc). After 24 h, the
test compounds were added concentrated from stock solutions in DMSO and culture medium
to triplicate wells to obtain the final different concentrations up to 100 µM in 0.1% DMSO.
Compounds were incubated for further 24 h. At termination, cytotoxicity was analyzed by the
propidium iodide (PI) fluorescence stain assay. All compounds were tested in three
independent experiments using different cell passages. The PI assay measures cell death. PI
enters into the cells with damaged membranes and greatly increases the fluorescence upon
binding to DNA. PI reagent (Molecular Probes) at the final concentration of 7.5 µg mL‒1 was
added to the cells and incubated for 1 h. The resulting fluorescence was measured by a Flx-
death induced by the compounds was calculated from to the fluorescence of treated cells (Ft)
relative to that of control cells (Fmin) and cells incubated with Triton X100 (Fmax) as the 0%
and 100% cell death, respectively [% = ((Ft-Fmin)/(Fmax-Fmin)) × 100]. All compounds
were tested in three independent experiments using different cell passages. LC50 values were
calculated for each experiment and the results are expressed as mean ± SD.

[2] = Kinetic aqueous solubility screen (light scattering); details: 1% DMSO / 99% PBS
Protocol: Aqueous solubility screen. The kinetic aqueous solubility of the target compounds was
as §32
Compostela, Spain). Ten mM stock solutions of the tested compounds were serially diluted,
NEPHELOstar Plus reader (BMG LABTECH). The results were adjusted to a segmented
linear regression to obtain the maximum concentration in which the compounds were soluble.

[3] = Microsomal stability, mouse liver microsomes; assay type: in vitro ADME; details: mouse, liver microsomes (pooled), pH 7.4; for microsomal CLint at 1 h, 0.05 µM / half-life at 1 h, 0.05 µM: 37 °C; for half-life at 1 h, 0.05 µM: read-out: t1/2, mouse microsomes; for remaining at 1 h, 0.05 µM: after 1 h of incubation at 37 °C, read-out: % remaining compound, mouse microsomes
Protocol: as §31, §32, §33, §34, §35

[4] = Microsomal stability, human liver microsomes; assay type: in vitro ADME; details: human, liver microsomes (pooled), pH 7.4; for remaining at 1 h: after 1 h of incubation at 37 °C, read-out: % remaining compound, human microsomes
Protocol: as §31, §32, §33, §34, §35

recombinant human sEH = target: T5, recombinant human sEH (Homo sapiens, UniProt P34913); experiment: Human soluble epoxide hydrolase inhibition, fluorescence-based assay (CMNPC substrate); assay type: biochemical; details: for higher hsEH potency relative to TPPU: ratio of IC50s vs TPPU; for IC50: recombinant human sEH, average of three replicates, read-out: hsEH IC50
T5 sequence (P34913 1-555): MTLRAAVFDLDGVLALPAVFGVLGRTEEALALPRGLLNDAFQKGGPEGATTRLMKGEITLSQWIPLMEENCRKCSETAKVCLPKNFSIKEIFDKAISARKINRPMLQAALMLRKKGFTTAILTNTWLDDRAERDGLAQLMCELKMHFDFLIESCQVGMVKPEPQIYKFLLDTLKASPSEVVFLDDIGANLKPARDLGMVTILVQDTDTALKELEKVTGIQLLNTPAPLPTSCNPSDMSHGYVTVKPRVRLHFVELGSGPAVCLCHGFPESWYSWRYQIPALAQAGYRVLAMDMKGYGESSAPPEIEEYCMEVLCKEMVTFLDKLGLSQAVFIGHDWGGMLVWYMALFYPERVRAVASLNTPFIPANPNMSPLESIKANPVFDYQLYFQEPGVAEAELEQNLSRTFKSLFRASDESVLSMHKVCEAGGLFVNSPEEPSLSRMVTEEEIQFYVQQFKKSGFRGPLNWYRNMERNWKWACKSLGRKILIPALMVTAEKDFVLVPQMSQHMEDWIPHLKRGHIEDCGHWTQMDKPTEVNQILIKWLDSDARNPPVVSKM
Protocol: as §21, §22, §23, §24, §25, §26, §27, §28, §29, §30

[5] = PAMPA-BBB assay for brain permeability; details: for BBB permeation class: PAMPA-BBB prediction; for Papp: pig, PAMPA
Protocol: PAMPA-BBB assay for brain permeability. The brain permeability (Pe) of the target
compounds was assessed by an in vitro parallel artificial membrane permeability assay for
blood‒brain barrier penetration (PAMPA-BBB assay),12 which uses a lipid extract of porcine
brain membrane as a BBB model. The assay was validated by comparing experimental and
reported Pe values of a set of fourteen commercial drugs (Table S2 of the Supporting
On the basis of this equation and the limits established by Di et al. for BBB
independent experiments, each performed in triplicate, were carried out for each compound.

[6] = target: PAS of Electrophorus electricus AChE (EeAChE) (Electrophorus electricus, UniProt O42275); details: read-out: KD of propidium for PAS; value assumed for the calculation; ref 11 (Supporting Information); cited from earlier work
Sequence of PAS of Electrophorus electricus AChE (EeAChE) (O42275 24-633): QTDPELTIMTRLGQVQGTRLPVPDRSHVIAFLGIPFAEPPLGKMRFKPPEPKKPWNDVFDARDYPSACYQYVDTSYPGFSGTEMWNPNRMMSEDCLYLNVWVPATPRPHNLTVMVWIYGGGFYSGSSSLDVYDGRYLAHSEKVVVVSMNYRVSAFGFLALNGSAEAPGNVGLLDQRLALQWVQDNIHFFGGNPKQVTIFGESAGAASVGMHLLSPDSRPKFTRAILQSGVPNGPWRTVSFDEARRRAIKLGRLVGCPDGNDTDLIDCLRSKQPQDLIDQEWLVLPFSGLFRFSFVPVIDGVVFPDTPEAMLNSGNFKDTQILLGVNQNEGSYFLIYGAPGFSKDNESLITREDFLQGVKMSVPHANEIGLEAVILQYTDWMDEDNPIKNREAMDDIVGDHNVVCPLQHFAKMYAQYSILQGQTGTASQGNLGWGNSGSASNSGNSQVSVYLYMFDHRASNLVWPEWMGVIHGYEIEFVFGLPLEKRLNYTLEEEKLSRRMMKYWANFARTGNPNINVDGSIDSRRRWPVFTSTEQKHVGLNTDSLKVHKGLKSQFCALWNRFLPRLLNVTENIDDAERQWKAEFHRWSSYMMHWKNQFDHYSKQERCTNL

[7] = human serum BChE, mean ± SEM, n.a. = not active, % inhibition <10% at 100 μM
[8] = 37 °C, read-out: t1/2, rat microsomes
[9] = 37 °C, read-out: t1/2, human microsomes

T1 sequence (P06276 29-602): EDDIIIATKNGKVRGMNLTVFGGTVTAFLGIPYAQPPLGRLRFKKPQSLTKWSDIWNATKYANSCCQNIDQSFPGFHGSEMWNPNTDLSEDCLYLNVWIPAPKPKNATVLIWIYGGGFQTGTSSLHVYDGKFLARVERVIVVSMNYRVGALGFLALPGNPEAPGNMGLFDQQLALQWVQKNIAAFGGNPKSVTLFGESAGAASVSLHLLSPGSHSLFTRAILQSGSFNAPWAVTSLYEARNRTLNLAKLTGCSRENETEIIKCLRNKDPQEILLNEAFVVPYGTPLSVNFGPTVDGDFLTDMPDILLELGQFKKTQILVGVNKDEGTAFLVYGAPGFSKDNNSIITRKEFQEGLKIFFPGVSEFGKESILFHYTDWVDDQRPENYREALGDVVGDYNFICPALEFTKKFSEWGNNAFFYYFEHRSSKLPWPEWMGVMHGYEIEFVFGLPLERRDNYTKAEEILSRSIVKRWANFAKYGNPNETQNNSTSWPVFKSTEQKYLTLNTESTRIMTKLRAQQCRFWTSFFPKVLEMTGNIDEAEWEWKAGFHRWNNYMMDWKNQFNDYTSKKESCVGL

| SMILES | IC50 (human serum BChE; [7]) | IC50 (recombinant human AChE) | IC50 (recombinant mouse sEH) | microsomal CLint at 1 h, 0.05 µM ([1]; 37 °C) | remaining at 1 h, 0.05 µM [1] | IC50 (recombinant mouse AChE) | toxicity to SH-SY5Y cells LD50 (SH-SY5Y cells) | LD50 (SH-SY5Y) (SH-SY5Y cells) | solubility at 2 h [2] | microsomal CLint at 1 h, 0.05 µM [3] | half-life at 1 h, 0.05 µM [3] | remaining at 1 h, 0.05 µM [3] | microsomal CLint at 1 h ([4]; 37 °C) | remaining at 1 h [4] | IC50 (recombinant human sEH) | BBB permeation class [5] | Papp [5] | further results |
| --- | --- | --- | --- | --- | --- | --- | --- | --- | --- | --- | --- | --- | --- | --- | --- | --- | --- | --- |
| O=C(Nc1ccc(OC(F)(F)F)cc1)NC1CCN(C(=O)CCNc2c3c(nc4cc(Cl)ccc24)CCCC3)CC1 [12a, 1-{1-{3-[(6-Chloro-1,2,3,4-tetrahydroacridin-9-yl)amino]propanoyl}piperidin-4-yl}-3-[4-(trifluoromethoxy)phenyl]urea] | 947 ± 6 nM | 14.5 ± 0.3 nM | 12.1 nM | 56 µL/min/mg | 4% | 35.4 ± 2 nM | 92.8 ± 52.3 µM | 92.8 ± 52.3 ?M | 42.6 µM (≈ 25.1 µg/mL) | 109 µL/min/mg | 6 min | 1% | 57 µL/min/mg | 4% | 0.4 nM | CNS+ (High permeation, CNS+: Pe > 5.2) | 9.2 ± 0.2 ×10⁻⁶ cm/s | half-life at 0.05 µM [1, 8]: 12 min; half-life [4, 9]: 12 min; higher hsEH potency relative to TPPU (recombinant human sEH): 9 fold |
| O=C(Nc1ccc(OC(F)(F)F)cc1)NC1CCN(C(=O)CCCNc2c3c(nc4cc(Cl)ccc24)CCCC3)CC1 [12b, 1-{1-{4-[(6-Chloro-1,2,3,4-tetrahydroacridin-9-yl)amino]butanoyl}piperidin-4-yl}-3-[4-(trifluoromethoxy)phenyl]urea] | 416 ± 35 nM | 2.71 ± 0.06 nM | 15 nM | 69 µL/min/mg | 2% | 4.01 ± 0.24 nM | >100 µM | > 100 ?M | 13.7 µM (≈ 8.28 µg/mL) | 78 µL/min/mg | 9 min | 1% | 19 µL/min/mg | 34% | 1 nM | CNS+ (High permeation, CNS+: Pe > 5.2) | 9.1 ± 0.1 ×10⁻⁶ cm/s | hAChE potency relative to 6-chlorotacrine (recombinant human AChE): 5 fold; half-life at 1 h, 0.05 µM [1, 8]: 10 min; half-life at 1 h [4, 9]: 36 min |
| CC1=C[C@@H]2Cc3nc4cc(Cl)ccc4c(N)c3[C@H](C1)C2 [(−)-3, (−)-huprine Y, reference compound] |  |  | > 50000 nM |  |  | 0.62 ± 0.03 nM |  |  |  |  |  |  |  |  | 41000 nM |  |  | IC50 (human serum BChE): 222 ± 17 nM |
| CC[N+](C)(CC)CCC[n+]1c(-c2ccccc2)c2cc(N)ccc2c2ccc(N)cc21 [propidium, propidium iodide] |  |  |  |  |  |  |  |  |  |  |  |  |  |  |  |  |  | Kd [6]: 700 nM |
| CC1=C[C@H]2Cc3nc4cc(Cl)ccc4c(N)c3[C@@H](C1)C2 [(+)-3, (+)-huprine Y, reference compound] |  |  | > 50000 nM |  |  | 474 ± 22 nM |  |  |  |  |  |  |  |  | > 50000 nM |  |  | IC50 (human serum BChE): 170 ± 17 nM |
| CN1C(C(=O)Nc2ccccn2)=C(O)c2ccccc2S1(=O)=O [Piroxicam, reference compound] |  |  |  |  |  |  |  |  |  |  |  |  |  |  |  |  | 2.3 ± 0.1 ×10⁻⁶ cm/s |  |
| CC1=C[C@H]2Cc3nc4cc(Cl)ccc4c(NCCCCC(=O)N4CCC(NC(=O)Nc5ccc(OC(F)(F)F)cc5)CC4)c3[C@@H](C1)C2 [(+)-15, (+)-(7R,11R)-1-{1-{5-[(3-Chloro-6,7,10,11-tetrahydro-9-methyl-7,11-methanocycloocta[b]quinolin-12-yl)amino]pentanoyl}piperidin-4-yl}-3-[4-(trifluoromethoxy)phenyl]urea] | 179 ± 26 nM | 1660 ± 450 nM | 14.5 nM |  |  | 102 ± 18 nM |  |  |  |  |  |  |  |  | 3.1 nM |  |  |  |
| CC1=C[C@@H]2Cc3nc4cc(Cl)ccc4c(NCCCCC(=O)N4CCC(NC(=O)Nc5ccc(OC(F)(F)F)cc5)CC4)c3[C@H](C1)C2 [(−)-15, (−)-(7S,11S)-1-{1-{5-[(3-Chloro-6,7,10,11-tetrahydro-9-methyl-7,11-methanocycloocta[b]quinolin-12-yl)amino]pentanoyl}piperidin-4-yl}-3-[4-(trifluoromethoxy)phenyl]urea] | 615 ± 34 nM | 1.94 ± 0.67 nM | 34.3 nM | 54 µL/min/mg | 4% | 2.61 ± 0.16 nM | >100 µM | > 100 ?M | 5.6 µM (≈ 3.75 µg/mL) | 172 µL/min/mg | 4 min | 0.4% | 144 µL/min/mg | 1% | 0.4 nM | CNS+ (High permeation, CNS+: Pe > 5.2) | 9.9 ± 0.3 ×10⁻⁶ cm/s | hAChE potency relative to its enantiomer (recombinant human AChE; enantioselectivity): 850 fold; half-life at 1 h, 0.05 µM [1, 8]: 13 min; half-life at 1 h [4, 9]: 5 min; hsEH potency relative to its enantiomer (recombinant human sEH; enantioselectivity): 8 fold; higher hsEH potency relative to TPPU (recombinant human sEH): 9 fold |
| Nc1c2c(nc3cc(Cl)ccc13)CCCC2 [compound 2, 6-chlorotacrine, reference compound] |  |  | > 50000 nM |  |  | 19.8 ± 0.7 nM |  |  |  |  |  |  |  |  | 49100 nM |  |  |  |

From PMC8958510 (Journal of Medicinal Chemistry, 2022)
